The subject of test [1] is normal prostate epithelial cells (NPE) expressing TREK-1. Briefly: MTT proliferation assay of normal prostate epithelial cells infected with TREK-1 adenovirus. The test is classed as cell-based. The following applies: sipatrigine 10 μM; compared with NPE/TREK-1 and other groups; five paired experiments. On the procedure:
FIG. 3. Dominant-negative TREK-1 reduces proliferation of PC-3 cells. PC-3 cells were transfected with either dn-TREK (or a control vector (PEGFP) using GeneJammer (Stratagene) under standard conditions. Proliferation of these cells was measured using the MTT assay after the cells were plated at 1×10^5 cells/well in 96 well plates. Data are presented as the mean ±SEM of five experiments. * p<0.05 vs control and EGFP
FIG. 5. Expression of TREK-1 increases proliferation of normal prostate epithelial cells (NPE). Normal prostate epithelial cell cultures were obtained from Clonetics and infected with a TREK-1-containing adenovirus. Some virally infected cells were also treated with sipatrigine (10 μM), a TREK-1 blocker. Cell proliferation was assessed using the MTT assay as described in FIG. 3.
Normal prostate epithelial cell cultures were obtained from Clonetics and infected with a TREK-1-containing adenovirus. Some virally infected cells were also treated with sipatrigine (10 μM), a TREK-1 blocker. Cell proliferation was assessed using the MTT assay as described in FIG. 3.
A general note: Tetrazolium dyes change colour on reduction, which living cells bring about.

Another test addresses T1, human TREK-1 (Homo sapiens, UniProt O95069).
T1 construct: expressed in transfected cells; host or cells: CHO cells
T1 sequence (O95069 1-426): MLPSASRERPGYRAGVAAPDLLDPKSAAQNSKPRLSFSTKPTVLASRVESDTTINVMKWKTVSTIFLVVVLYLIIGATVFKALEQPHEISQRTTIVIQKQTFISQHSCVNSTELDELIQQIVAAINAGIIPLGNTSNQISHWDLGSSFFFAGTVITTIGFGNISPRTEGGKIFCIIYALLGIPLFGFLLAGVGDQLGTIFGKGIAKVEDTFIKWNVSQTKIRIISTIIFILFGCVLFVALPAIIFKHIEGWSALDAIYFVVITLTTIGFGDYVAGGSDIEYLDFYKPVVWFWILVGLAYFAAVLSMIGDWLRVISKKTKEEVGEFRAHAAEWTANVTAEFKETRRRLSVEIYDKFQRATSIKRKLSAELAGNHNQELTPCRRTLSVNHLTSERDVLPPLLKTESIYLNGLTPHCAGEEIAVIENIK
The experiment in a line: Patch clamp of TREK-1 current in CHO cells transfected with human TREK-1. The test is classed as cell-based. Conditions: CHO cells heterologously expressing human TREK-1; ramp protocol -130 mV to +40 mV in 6 s. As to the method:
FIG. 7. […] CHO cells were transfected with a plasmid encoding human TREK-1 and the current was studied by patch clamp. The current-voltage relation was determined using a ramp protocol that went from −130 mV to +40 mV in 6 s (after correction for the junction potential). Current was greater in the presence of meclofenamate. This is typical of 7 cells.
FIG. 8. […] CHO cells were transfected with a plasmid encoding human TREK-1 and the current was studied by patch clamp. The current-voltage relation was determined using a ramp protocol that went from −130 mV to +40 mV in 6 s (after correction for the junction potential). Current was less in the presence of trifluoperazine. This is typical of 3 cells.
CHO cells were transfected with a plasmid encoding human TREK-1 and the current was studied by patch clamp. The current-voltage relation was determined using a ramp protocol that went from −130 mV to +40 mV in 6 s (after correction for the junction potential). Current was greater in the presence of meclofenamate. This is typical of 7 cells.
CHO cells were transfected with a plasmid encoding human TREK-1 and the current was studied by patch clamp. The current-voltage relation was determined using a ramp protocol that went from −130 mV to +40 mV in 6 s (after correction for the junction potential). Current was less in the presence of trifluoperazine. This is typical of 3 cells.

SMILES strings stand for the structures.

These results are taken from patent US8309528B2, “Two pore channels as regulators of proliferation in cancer” (The Trustees of Columbia University in the City of New York, priority 2006, dated 2012).

`CN1CCN(c2ncc(-c3cc(Cl)cc(Cl)c3Cl)c(N)n2)CC1` [sipatrigine]: the “Cell proliferation (MTT) of TREK-1-infected NPE” value in test [1] was “no other groups were different”.
In the case of `CN1CCN(CCCN2c3ccccc3Sc3ccc(C(F)(F)F)cc32)CC1` [Trifluoperazine], the “Effect on TREK-1 current” value at human TREK-1 is reported as “inhibits TREK-1 current”.
Still for that read-out and setting: the result for `Cc1ccc(Cl)c(Nc2ccccc2C(=O)O)c1Cl` [Meclofenamate, Meclofenamic acid] reads “activates TREK-1 current”.
